Entries after “also recorded” stand apart in the source; their conditions may differ.
Test system: PTK2 kidney epithelial cells
Experiment: Cellular localization by live fluorescence microscopy
Format: cell-based
Details: 2 μM, 2 hours incubation, before/without 365 nm light exposure; hydrochloride
Excerpt: The intracellular localization of the DOX-PCB nanoparticles and pure DOX was studied using the PTK2 epithelial cell line. These cells were used because they are susceptible to DOX and remain flat during mitosis, allowing for enhanced visualization of the nuclear region. This visualization capability was important since one of the main therapeutic modes of action for DOX is through DNA intercalation. The DOX-PCB nanoparticles and pure DOX are both naturally fluorescent which allowed them to be easily tracked through the cell. The PTK2 cells were plated in glass bottom petri dishes (MatTek Corporation, Ashland, Mass.) and were incubated in advanced MEM Media from Gibco (Invitrogen, Grand Island, N.Y.) with 2% fetal bovine serum, nonessential amino acids, 110 mg/L sodium pyruvate, and without penicillin-streptomycin or L-Glutamine.
A 1 ml media solution of DOX-PCB nanoparticles was prepared by first adding 10×DPBS to a 4.1 μM solution of DOX-PCB nanoparticles in water to achieve a 1×DPBS concentration, and then adding the resulting solution to a phenol-red free formulation of the advanced MEM media described above to achieve a final DOX-PCB content of 2 μM. This spiked media sample was then added to the glass bottom petri dish along with PTK2 cells seeded which had the previous incubation media removed. […]

COc1cccc2c1C(=O)c1c(O)c3c(c(O)c1C2=O)C[C@@](O)(C(=O)CO)C[C@@H]3O[C@H]1C[C@H](N)[C@H](O)[C@H](C)O1.Cl [DOX, Doxorubicin hydrochloride]
intracellular localization: strongly associate with the cell nuclei; also recorded: associate strongly with the cell nuclei

— patent US20200000916A1, “REGIONALLY ACTIVATED DRUG DELIVERY NANOPARTICLES” (The Regents of the University of California, priority 2013, published 2020)
